Source: US10137138B1, “Sulfonylurea derivatives of oleanolic acid” (KING SAUD UNIVERSITY, priority 2018, dated 2018)

How the values were obtained:
[1] = tested on: alloxan-induced diabetic mouse model; assay: Sub-acute evaluation of in vivo oral hypoglycemic activity (21 days dosing, 7 days rest); conditions: diabetic mice, mean ± SEM, n=6; for % change in BG, 7 days rest period: day 28: 7 days rest after 21 days oral 200 μg/kg body weight; for % change in BG, 7 day / % change in BG, 14 day / % change in BG, 21 day: oral 200 μg/kg body weight daily; for % change in BG, 7 day: day 7; for % change in BG, 14 day: day 14; for % change in BG, 21 day: day 21
Description: The sulfonylurea derivative compounds were also screened for their oral hypoglycemic activity after several days of administration using the alloxan-induced diabetic mouse model, and percentage changes in blood glucose levels after oral administration ([…] body weight) were recorded (Table 2).
Briefly, animals were fasted overnight, and the fasting BG (0 day) levels were calculated. Test and control compounds were administered orally for 21 days at a fixed time and a fixed dose of 200 μg/kg body weight (homogenized suspension in 0.5% CMC and permissible amounts of Tween 80). After 21 days, treatment was stopped and animals were rested for a period of 7 days. Animals in the vehicle-treated group were then given an equal amount of 0.5% CMC and those of control group were untreated. Blood samples were removed from all animals throughout the course of the study at 7, 14, 21 and 28 days, and percentage change in BG was calculated. The data were analyzed by one-way ANOVA, followed by Dunnett's test. The results were expressed as mean±standard error of mean for each group, n=6 for each group, and p<0.01 or p<0.05 was considered as statistically significant (Table 2).

[2] = tested on: alloxan-induced diabetic mouse model; assay: Acute evaluation of in vivo oral hypoglycemic activity; conditions: diabetic mice, single oral dose 200 μg/kg body weight, mean ± SEM, n=6
Description: The sulfonylurea derivatives of oleanolic acid were screened for their oral hypoglycemic activity in vivo using the alloxan-induced diabetic mouse model. In an acute evaluation, the percentage change in blood glucose levels in diabetic mice after oral administration of the test compounds (200 μg/kg body weight) was measured and summarized in Table 1 and FIG. 2.
Briefly, animals were fasted overnight and the fasting blood glucose (BG) (0 hour) levels were calculated. Test and control compounds were administered at a fixed dose of 200 μg/kg body weight orally (homogenized suspension in 0.5% carboxymethyl cellulose (CMC) and permissible amounts of Tween 80). Animals in the vehicle-treated group were given an equal volume of 0.5% CMC and control group animals were untreated. Blood samples were removed from all animals at 2, 4, 6 and 24 hours and the percentage change in BG was calculated. The data were analyzed by one-way ANOVA followed by Dunnett's test. The results were expressed as mean±standard error of mean for each group, n=6 for each group, and p<0.01 or p<0.05 was considered as statistically significant.

Compound	% change in BG, 7 days rest period [1] [%]	% change in BG, 7 day [1] [%]	% change in BG, 14 day [1] [%]	% change in BG, 21 day [1] [%]	% change in BG, 2 h [2] [%]	% change in BG, 4 h [2] [%]	% change in BG, 6 h [2] [%]	% change in BG, 24 h [2] [%]
CC1(C)CC[C@]2(C(=O)O)CC[C@]3(C)C(=CC[C@@H]4[C@@]5(C)CC[C@H](O)C(C)(C)[C@@H]5CC[C@]43C)[C@@H]2C1 [Oleanolic acid, oleanolic acid]	−30.32 ± 0.83	−10.56 ± 0.80	−20.35 ± 0.72	−37.68 ± 0.78	−40.79 ± 1.20	−48.66 ± 1.31	−52.17 ± 1.31	−51.01 ± 1.11
COc1ccc(Cl)cc1C(=O)NCCc1ccc(S(=O)(=O)NC(=O)NC2CCCCC2)cc1 [Glibenclamide, glibenclamide]	−28.48 ± 0.58	−16.23 ± 0.32	−22.57 ± 0.54	−30.87 ± 0.58	−35.55 ± 1.55	−26.54 ± 1.32	−15.58 ± 0.88	−11.24 ± 0.11
CC1CCC(NC(=O)NS(=O)(=O)c2ccc(CCNC(=O)C34CCC(C)(C)CC3C3=CCC5C6(C)CCC(=O)C(C)(C)C6CCC5(C)C3(C)CC4)cc2)CC1 (stereo not drawn) [Compound 3b, N1-[4-(3-Oxo-18β-olean-12-ene-28-amido-ethyl)-benzenesulfonyl]-N2-(4-methylcyclohexyl)-urea]	−82.12 ± 1.17	−80.80 ± 0.80	−84.98 ± 1.16	−88.89 ± 1.12	−75.56 ± 0.86	−80.97 ± 0.92	−88.89 ± 0.98	−76.76 ± 0.89
CC1(C)CC[C@]2(C(=O)NCCc3ccc(S(=O)(=O)NC(=O)NC4CCCCC4)cc3)CC[C@]3(C)C(=CC[C@@H]4[C@@]5(C)CCC(=O)C(C)(C)[C@@H]5CC[C@]43C)[C@@H]2C1 [Compound 3a, N1-[p-(4-Oxo-18β-olean-12-ene-28-amido-ethyl)-benzenesulfonyl]-N2-cyclohexyl-urea]	−81.78 ± 0.90	−76.87 ± 0.89	−80.09 ± 0.90	−87.65 ± 0.95	−72.76 ± 0.78	−77.76 ± 0.90	−83.56 ± 0.83	−74.44 ± 0.74
